From patent publication US4933104A, “Anthraquinone derivative as a dichroic dye for a liquid-crystal material, liquid-crystal material and an electrooptical device” (priority 1986, dated 1990)
Where “and” joins values, the source holds several entries; their conditions need not be identical. Identical values can stand only once.

Assays:
Assay type in all cases: physicochemical
[1] = limiting solubility in liquid-crystalline mixtures at 20° C.; details: for Solubility (limiting), known derivatives: Table 6, derivatives of SU 1089084
[2] = λmax of the long-wave absorption band of the dye; details: Table 7; two values = two maxima
Protocol: A weighed sample of one or several anthraquinone derivatives of general formula /1/ is dissolved upon heating to 60° C. in a liquid-crystalmatrix and then cooled to 20° C.

[3] = negative dichroism S in a liquid-crystalline mixture; details: liquid-crystalline mixture ZK-807
Protocol: (§1) Table 1 given below lists the values of negative dichroism of the anthraquinone derivative of general formula /1/ for examples 1-30 in a liquid-crystalline mixture ZK-807; Table 2 illustrates physico-chemical characteristics, and Table 3--limiting solubility in liquid-crystalline mixtures (ZK-807, ZLI-1840, 3010, SP-586, ZK-1282) at 20° C.

[4] = λmax of the long-wave absorption band of the dye; details: Table 1 / Examples; several values = several maxima
Protocol: as §1

## CCCCCCc1ccc(C(=O)Nc2ccc(OC(=O)c3ccc(CCCCCC)cc3)c3c2C(=O)c2c(NC(=O)c4ccc(CCCCCC)cc4)ccc(OC(=O)c4ccc(CCCCCC)cc4)c2C3=O)cc1 [No. 5, Table 6, reference compound]
[1]; ZK-807, 20° C.
  Solubility (limiting), known derivatives: 0.5 mass %
[1]; ZLI-1840, 20° C.
  Solubility (limiting), known derivatives: 0.1 mass %
[2]
  λmax, known derivatives: 468 nm

## CCCCc1ccc(C(=O)Nc2ccc(O)c3c2C(=O)c2c(NC(=O)c4ccc(CCCC)cc4)ccc(OC(=O)c4ccc(CCCC)cc4)c2C3=O)cc1 [No. 8, Table 6, reference compound]
[1]; ZK-807, 20° C.
  Solubility (limiting), known derivatives: 1.0 mass %
[1]; ZLI-1840, 20° C.
  Solubility (limiting), known derivatives: 0.3 mass %
[2]
  λmax, known derivatives: 535 nm

## CCCCc1ccc(C(=O)Nc2ccc(O)c3c2C(=O)c2c(NC(=O)c4ccc(CCCC)cc4)ccc(O)c2C3=O)cc1 [No. 7, Table 6, reference compound]
[1]; ZK-807, 20° C.
  Solubility (limiting), known derivatives: 0.1 mass %
[2]
  λmax, known derivatives: 560 nm

## CCCCCCc1ccc(C(=O)Nc2ccc(O)c3c2C(=O)c2c(NC(=O)c4ccc(CCCCCC)cc4)ccc(O)c2C3=O)cc1 [No. 9, Table 6, reference compound]
[1]; ZK-807, 20° C.
  Solubility (limiting), known derivatives: 0.1 mass %
[2]
  λmax, known derivatives: 562 nm

## CCCCCC1CCC(c2ccc(C(=O)Nc3ccc(O)c4c3C(=O)c3c(NC(=O)c5ccc(C6CCC(CCCCC)CC6)cc5)ccc(OC(=O)c5ccc(C6CCC(CCCCC)CC6)cc5)c3C4=O)cc2)CC1 (stereo not shown) [No. 10, Table 6, reference compound]
[1]; ZK-807, 20° C.
  Solubility (limiting), known derivatives: 0.2 mass %
[1]; ZLI-1840, 20° C.
  Solubility (limiting), known derivatives: 0.6 mass %
[2]
  λmax, known derivatives: 554 nm

## CCCCc1ccc(C(=O)Nc2ccc(OC(=O)c3ccc(CCCC)cc3)c3c2C(=O)c2c(NC(=O)c4ccc(CCCC)cc4)ccc(OC(=O)c4ccc(CCCC)cc4)c2C3=O)cc1 [No. 6, Table 6, reference compound]
[1]; ZK-807, 20° C.
  Solubility (limiting), known derivatives: 0.5 mass %
[2]
  λmax, known derivatives: 470 nm

## CCCCCc1cc(NC(=O)c2ccc(CCCC)cc2)c2c(c1OC(=O)c1ccc(CCCC)cc1)C(=O)c1c(OC(=O)c3ccc(CCCC)cc3)c(CCCCC)cc(NC(=O)c3ccc(CCCC)cc3)c1C2=O [Compound 14]
[3]
  negative dichroism S: -0.32
[4]
  λmax: 458 nm and 470 nm
[1]; 3010, 20° C.
  Solubility (limiting): 4.46 mass %
[1]; SP-586, 20° C.
  Solubility (limiting): 3.78 mass %
[1]; ZK-807, 20° C.
  Solubility (limiting): 9.5 mass %
[1]; ZK-1282, 20° C.
  Solubility (limiting): 4.0 mass %
[1]; ZLI-1840, 20° C.
  Solubility (limiting): 3.8 mass %

## CCCCCCc1ccc(C(=O)Nc2cc(CCCCC)c(O)c3c2C(=O)c2c(NC(=O)c4ccc(CCCCCC)cc4)cc(CCCCC)c(OC(=O)c4ccc(CCCCCC)cc4)c2C3=O)cc1 [Compound 26]
[3]
  negative dichroism S: -0.31
[4]
  λmax: 542 nm
[1]; 3010, 20° C.
  Solubility (limiting): 1.0 mass %
[1]; ZK-807, 20° C.
  Solubility (limiting): 2.9 mass %
[1]; ZK-1282, 20° C.
  Solubility (limiting): 0.7 mass %
[1]; ZLI-1840, 20° C.
  Solubility (limiting): 1.1 mass %

## CCCCc1ccc(C(=O)Nc2ccc(NC(=O)c3ccc(CCCC)cc3)c3c2C(=O)c2ccccc2C3=O)cc1 [No. 3, Table 6, reference compound]
[1]; ZK-807, 20° C.
  Solubility (limiting), known derivatives: 2.0 mass %
[1]; ZLI-1840, 20° C.
  Solubility (limiting), known derivatives: 0.3 mass %
[2]
  λmax, known derivatives: 508 nm

## CCCCc1cc(NC(=O)c2ccc(C3CCC(CCCC)CC3)cc2)c2c(c1OC(=O)CCC)C(=O)c1c(OC(=O)CCC)c(CCCC)cc(NC(=O)c3ccc(C4CCC(CCCC)CC4)cc3)c1C2=O (stereo not shown) [Compound 13]
[3]
  negative dichroism S: -0.37
[4]
  λmax: 470 nm
[1]; 3010, 20° C.
  Solubility (limiting): 1.75 mass %
[1]; ZK-807, 20° C.
  Solubility (limiting): 4.9 mass %
[1]; ZLI-1840, 20° C.
  Solubility (limiting): 2.1 mass %

## CCCCCC1CCC(c2ccc(C(=O)Nc3cc(CCCC)c(O)c4c3C(=O)c3c(NC(=O)c5ccc(C6CCC(CCCCC)CC6)cc5)cc(CCCC)c(OC(=O)CCC)c3C4=O)cc2)CC1 (stereo not shown) [Compound 22]
[3]
  negative dichroism S: -0.38
[4]
  λmax: 545 nm
[1]; 3010, 20° C.
  Solubility (limiting): 2.0 mass %
[1]; SP-586, 20° C.
  Solubility (limiting): 1.2 mass %
[1]; ZK-807, 20° C.
  Solubility (limiting): 1.1 mass %
[1]; ZK-1282, 20° C.
  Solubility (limiting): 1.5 mass %
[1]; ZLI-1840, 20° C.
  Solubility (limiting): 1.4 mass %

## CCCCc1cc(NC(=O)C2CCC(CCCC)CC2)c2c(c1OC(=O)c1ccc(C3CCC(CCCC)CC3)cc1)C(=O)c1c(OC(=O)c3ccc(C4CCC(CCCC)CC4)cc3)c(CCCC)cc(NC(=O)C3CCC(CCCC)CC3)c1C2=O (stereo not shown) [Compound 10]
[3]
  negative dichroism S: -0.35
[4]
  λmax: 466 nm
[1]; 3010, 20° C.
  Solubility (limiting): 9.0 mass %
[1]; SP-586, 20° C.
  Solubility (limiting): 7.5 mass %
[1]; ZK-807, 20° C.
  Solubility (limiting): 10.8 mass %
[1]; ZLI-1840, 20° C.
  Solubility (limiting): 7.2 mass %

## CCCCCCc1ccc(C(=O)Nc2ccc(NC(=O)c3ccc(CCCCCC)cc3)c3c2C(=O)c2ccccc2C3=O)cc1 [No. 4, Table 6, reference compound]
[1]; ZK-807, 20° C.
  Solubility (limiting), known derivatives: 2.3 mass %
[1]; ZLI-1840, 20° C.
  Solubility (limiting), known derivatives: 0.6 mass %
[2]
  λmax, known derivatives: 512 nm
